Laboratory results published in the NIST ThermoML archive (doi:10.1016/j.jct.2017.06.001).

Assay: xn = mol fraction of the nth substance listed
Settings: 100 kPa, Liquid; for speed of sound: Frequency=5 MHz, Pulse-echo method; for mass density: Vibrating tube method

OCCCCCO [1,5-pentanediol] + O
Settings | mass density [kg/m3] | speed of sound [m/s]
298.15 K, x1 = 0.005 | 996.7 | –
298.15 K, x1 = 0.0101 | 996.7 | –
298.15 K, x1 = 0.0196 | 997.13 | –
298.15 K, x1 = 0.0251 | 997.61 | –
298.15 K, x1 = 0.0304 | 998.17 | –
298.15 K, x1 = 0.05 | 999.75 | –
298.15 K, x1 = 0.0769 | 1001.11 | –
298.15 K, x1 = 0.1002 | 1002.09 | –
298.15 K, x1 = 0.1282 | – | 1678.7
298.15 K, x1 = 0.1298 | – | 1679.1
298.15 K, x1 = 0.1332 | – | 1680
298.15 K, x1 = 0.1353 | – | 1680.5
298.15 K, x1 = 0.1358 | – | 1680.6
298.15 K, x1 = 0.1417 | – | 1681.8
298.15 K, x1 = 0.1438 | 1002.72 | –
298.15 K, x1 = 0.1444 | – | 1682.3
298.15 K, x1 = 0.1473 | – | 1682.8
298.15 K, x1 = 0.1535 | – | 1683.7
298.15 K, x1 = 0.1536 | – | 1683.7
298.15 K, x1 = 0.1588 | – | 1684.3
298.15 K, x1 = 0.1603 | – | 1684.5
298.15 K, x1 = 0.1616 | – | 1684.6
298.15 K, x1 = 0.1649 | – | 1684.9
298.15 K, x1 = 0.1676 | – | 1685.1
298.15 K, x1 = 0.1771 | – | 1685.7
298.15 K, x1 = 0.1845 | 1002.56 | –
298.15 K, x1 = 0.1944 | – | 1686.1
298.15 K, x1 = 0.2114 | – | 1686
298.15 K, x1 = 0.2309 | – | 1685.4
298.15 K, x1 = 0.247 | – | 1684.6
298.15 K, x1 = 0.2503 | 1001.62 | –
298.15 K, x1 = 0.2649 | – | 1683.5
298.15 K, x1 = 0.2807 | – | 1682.5
298.15 K, x1 = 0.2987 | – | 1681.1
298.15 K, x1 = 0.3 | 1000.58 | –
298.15 K, x1 = 0.3178 | – | 1679.6
298.15 K, x1 = 0.3343 | 999.9 | –
298.15 K, x1 = 0.3356 | – | 1678
298.15 K, x1 = 0.3619 | – | 1675.6
298.15 K, x1 = 0.38 | – | 1673.8
298.15 K, x1 = 0.4015 | – | 1671.6
298.15 K, x1 = 0.4171 | 998.14 | –
298.15 K, x1 = 0.4247 | – | 1669.1
298.15 K, x1 = 0.4487 | – | 1666.4
298.15 K, x1 = 0.454 | 997.25 | –
298.15 K, x1 = 0.4652 | – | 1664.4
298.15 K, x1 = 0.4828 | – | 1662.2
298.15 K, x1 = 0.4985 | – | 1660.2
298.15 K, x1 = 0.5003 | 996.2 | –
298.15 K, x1 = 0.5142 | – | 1658.1
298.15 K, x1 = 0.5304 | – | 1656
298.15 K, x1 = 0.5362 | 995.4 | –
298.15 K, x1 = 0.5465 | – | 1653.8
298.15 K, x1 = 0.5643 | – | 1651.3
298.15 K, x1 = 0.5819 | – | 1648.8
298.15 K, x1 = 0.5991 | – | 1646.4
298.15 K, x1 = 0.6177 | 993.8 | –
298.15 K, x1 = 0.6187 | – | 1643.6
298.15 K, x1 = 0.6363 | – | 1641.1
298.15 K, x1 = 0.6478 | 993.2 | –
298.15 K, x1 = 0.6547 | – | 1638.5
298.15 K, x1 = 0.6726 | – | 1635.9
298.15 K, x1 = 0.6904 | – | 1633.4
298.15 K, x1 = 0.7025 | 992.2 | –
298.15 K, x1 = 0.7097 | – | 1630.7
298.15 K, x1 = 0.729 | – | 1628
298.15 K, x1 = 0.7504 | 991.4 | –
298.15 K, x1 = 0.7505 | – | 1625.1
298.15 K, x1 = 0.7712 | – | 1622.3
298.15 K, x1 = 0.7919 | – | 1619.6
298.15 K, x1 = 0.7927 | 990.6 | –
298.15 K, x1 = 0.8118 | – | 1617
298.15 K, x1 = 0.8321 | – | 1614.5
298.15 K, x1 = 0.8523 | – | 1612
298.15 K, x1 = 0.8605 | 989.3 | –
298.15 K, x1 = 0.8751 | – | 1609.2
298.15 K, x1 = 0.8978 | – | 1606.4
298.15 K, x1 = 0.9004 | 988.6 | –
298.15 K, x1 = 0.9201 | – | 1603.7
298.15 K, x1 = 0.9427 | – | 1600.9
298.15 K, x1 = 0.9496 | 987.5 | –
298.15 K, x1 = 0.9712 | – | 1597.4
298.15 K, x1 = 0.9832 | – | 1595.9
298.15 K, x1 = 0.993 | – | 1594.7
298.15 K, x1 = 1 | 986.5 | 1593.8
303.15 K, x1 = 0.0002 | – | 1510.1
303.15 K, x1 = 0.0005 | – | 1510.9
303.15 K, x1 = 0.0007 | – | 1511.8
303.15 K, x1 = 0.0011 | – | 1513
303.15 K, x1 = 0.0014 | – | 1514.2
303.15 K, x1 = 0.0019 | – | 1515.5
303.15 K, x1 = 0.0023 | – | 1517.1
303.15 K, x1 = 0.0028 | – | 1518.5
303.15 K, x1 = 0.0033 | – | 1520.2
303.15 K, x1 = 0.0038 | – | 1521.9
303.15 K, x1 = 0.0045 | – | 1524.1
303.15 K, x1 = 0.0052 | – | 1526.2
303.15 K, x1 = 0.006 | – | 1528.5
303.15 K, x1 = 0.0067 | – | 1530.9
303.15 K, x1 = 0.0076 | – | 1533.3
303.15 K, x1 = 0.0084 | – | 1535.8
303.15 K, x1 = 0.0093 | – | 1538.3
303.15 K, x1 = 0.0102 | – | 1540.9
303.15 K, x1 = 0.0111 | – | 1543.4
303.15 K, x1 = 0.0121 | – | 1546.1
303.15 K, x1 = 0.0131 | – | 1549
303.15 K, x1 = 0.0143 | – | 1552
303.15 K, x1 = 0.0152 | – | 1554.6
303.15 K, x1 = 0.0164 | – | 1557.6
303.15 K, x1 = 0.0176 | – | 1560.4
303.15 K, x1 = 0.0187 | – | 1563.2
303.15 K, x1 = 0.0198 | – | 1565.8
303.15 K, x1 = 0.0211 | – | 1568.8
303.15 K, x1 = 0.0224 | – | 1571.8
303.15 K, x1 = 0.0238 | – | 1575
303.15 K, x1 = 0.025 | – | 1577.6
303.15 K, x1 = 0.0263 | – | 1580.4
303.15 K, x1 = 0.0274 | – | 1582.8
303.15 K, x1 = 0.0286 | – | 1585.1
303.15 K, x1 = 0.0298 | – | 1587.5
303.15 K, x1 = 0.0311 | – | 1590.1
303.15 K, x1 = 0.0323 | – | 1592.4
303.15 K, x1 = 0.0336 | – | 1594.7
303.15 K, x1 = 0.035 | – | 1597.4
303.15 K, x1 = 0.0363 | – | 1599.7
303.15 K, x1 = 0.0378 | – | 1602.2
303.15 K, x1 = 0.0396 | – | 1605.2
303.15 K, x1 = 0.0417 | – | 1608.5
303.15 K, x1 = 0.0431 | – | 1610.7
303.15 K, x1 = 0.0455 | – | 1614.4
303.15 K, x1 = 0.0471 | – | 1616.7
303.15 K, x1 = 0.0489 | – | 1619.2
303.15 K, x1 = 0.0504 | – | 1621.1
303.15 K, x1 = 0.0519 | – | 1623.1
303.15 K, x1 = 0.0541 | – | 1625.9
303.15 K, x1 = 0.0565 | – | 1628.8
303.15 K, x1 = 0.0594 | – | 1632.1
303.15 K, x1 = 0.0615 | – | 1634.4
303.15 K, x1 = 0.0646 | – | 1637.6
303.15 K, x1 = 0.0673 | – | 1640.2
303.15 K, x1 = 0.0706 | – | 1643.2
303.15 K, x1 = 0.0746 | – | 1646.6
303.15 K, x1 = 0.0782 | – | 1649.5
303.15 K, x1 = 0.0815 | – | 1651.8
303.15 K, x1 = 0.0842 | – | 1653.7
303.15 K, x1 = 0.0876 | – | 1655.8
303.15 K, x1 = 0.0913 | – | 1658
303.15 K, x1 = 0.0937 | – | 1659.3
303.15 K, x1 = 0.0967 | – | 1660.8
303.15 K, x1 = 0.0996 | – | 1662.2
303.15 K, x1 = 0.1022 | – | 1663.4
303.15 K, x1 = 0.1053 | – | 1664.7
303.15 K, x1 = 0.1078 | – | 1665.7
303.15 K, x1 = 0.1089 | – | 1666.1
303.15 K, x1 = 0.1114 | – | 1667
303.15 K, x1 = 0.1126 | – | 1667.4
303.15 K, x1 = 0.1153 | – | 1668.3
